Assay results published in patent publication US20030003050A1 (priority 2001, published 2003).

Experiments:
B6μ, Heμ and CXμ mice [1] = details: mouse, in vivo, ip, 10 mg/kg
B6μ, Heμ and CXμ mice [2] = test: hot-plate test; assay type: in vivo, mouse; details: CXμ mice vs B6μ and Heμ littermates; 10 mg/kg intraperitoneal; 20 minutes after injection; plate 52.0°C; p<0.05

Compound: CN1CC[C@]23c4c5ccc(O)c4O[C@H]2[C@@H](O)C=C[C@H]3[C@H]1C5.Cl [morphine, Morphine hydrochloride]
- latency of response to heat stimulus (drug-induced analgesia), tail-flick test (B6μ, Heμ and CXμ mice [1]): significantly shorter latency than the littermates
- latency of response to heat stimulus (first jumping; drug-induced analgesia), hot-plate test (B6μ, Heμ and CXμ mice [2]): significantly shorter latency than the littermates
